Experiments:
PIP4K2B = molecular target: T1, PIP4K2B (Homo sapiens, UniProt P78356); assay: Trans-FI P kinase assay PIP4K2B (Table 4); format: biochemical; settings: compounds listed under IC50 bins; read-out: Trans-FI P kinase assays: PIP4K2B IC50
T1 construct: made in house; host or cells: E. coli
T1 sequence (P78356 1-416): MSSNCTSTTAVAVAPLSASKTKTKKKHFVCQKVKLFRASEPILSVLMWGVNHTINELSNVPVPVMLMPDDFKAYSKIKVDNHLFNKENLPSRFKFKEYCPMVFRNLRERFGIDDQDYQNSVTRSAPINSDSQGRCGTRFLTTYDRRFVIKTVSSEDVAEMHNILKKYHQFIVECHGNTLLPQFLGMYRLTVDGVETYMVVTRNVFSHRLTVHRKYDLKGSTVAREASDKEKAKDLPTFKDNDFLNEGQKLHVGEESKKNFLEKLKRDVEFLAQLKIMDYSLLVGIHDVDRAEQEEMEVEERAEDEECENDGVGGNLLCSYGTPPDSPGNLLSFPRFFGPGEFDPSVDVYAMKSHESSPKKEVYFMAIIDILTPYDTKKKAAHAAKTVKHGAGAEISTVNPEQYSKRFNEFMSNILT
Procedure, shortened: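 Transcreener FI detection (Ex 584/Em 623) of GDP, converted via calibration curve, gives IC50 from residual activity versus log concentration (highest 4.8 μM). Reaction: 80 μM PI5P plus DOPE carrier, 100 μM GTP, 5 nM GST-tagged enzyme, pH 7.3 HEPES with MgCl2 and 5% DMSO, 2 h after 1 h enzyme-compound preincubation at 27° C.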

PIP4K2A = molecular target: T2, PIP4K2A (Homo sapiens, UniProt P48426); assay: ADP-glo kinase assay PIP4K 2A (Table 3); format: biochemical; design: made in house; host or cells: E. coli; settings: compounds listed under IC50 bins
T2 sequence (P48426 1-406): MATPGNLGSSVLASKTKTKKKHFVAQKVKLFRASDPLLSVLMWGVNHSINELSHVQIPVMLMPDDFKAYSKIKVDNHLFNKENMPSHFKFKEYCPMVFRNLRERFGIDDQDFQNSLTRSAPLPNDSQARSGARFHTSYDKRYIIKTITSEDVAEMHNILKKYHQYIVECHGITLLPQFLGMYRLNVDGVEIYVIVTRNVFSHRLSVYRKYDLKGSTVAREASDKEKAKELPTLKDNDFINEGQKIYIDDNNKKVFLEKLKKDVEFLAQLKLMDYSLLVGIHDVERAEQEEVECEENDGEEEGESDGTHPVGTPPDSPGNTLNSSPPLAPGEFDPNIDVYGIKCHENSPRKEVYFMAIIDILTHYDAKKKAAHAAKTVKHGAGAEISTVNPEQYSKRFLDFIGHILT
Description: Dilution series of the compounds were prepared in DMSO at 100 times the final assay concentration (n1=n0/3 in 10 points). The compounds were further diluted to three times the assay concentration in assay buffer (20 mM MOPS pH 7.2, 25 mM magnesium chloride, 0.005% Tween 20). 6 μL of the diluted compounds were added to a 384 well assay plate followed by 9 μL of a mix consisting of 4 nM PIP4K2A (full length protein, SignalChem) and 100 μM PI(5)P diC8 (Tebu-Bio). Enzyme and compounds were pre-incubated at room temperature for 15 minutes.
Then 3 μL of a solution containing 60 μM ATP (Promega) in assay buffer was added to the wells containing compound and enzyme and mixing was performed by pipetting several times. The reaction was incubated at room temperature for 1 h. Then 18 μL of ADP-Glo™ Reagent (Promega) was added to stop the kinase reaction and deplete the unconsumed ATP, mixing was performed by pipetting several times. The plate was incubated at room temperature for 40 minutes before addition of 36 μL of Kinase Detection Reagent (Promega) to convert ADP to ATP and introduce luciferase and luciferin to detect ATP. The reaction was incubated at room temperature for 40 minutes before the luminescence was measured in a in a Victor 3V 1420 multilabel counter (Perkin Elmer).
Percent inhibition of the compounds as compared to dimethyl sulfoxide treated control samples was calculated. Compound concentration versus percent inhibition were fitted to generate IC50 values. […]

Row | IC50 (PIP4K2B) [nM] | IC50 (PIP4K2A) [nM] | SMILES
1 | 1 to 10 | ≤ 1 | COc1nc(Nc2cnc3c(c2)N2C(=O)C4(CC4)C[C@H]2CO3)ncc1-c1ccc(N2CCCC2=O)cc1 [Example 200, (S)-2′-((4-methoxy-5-(4-(2-oxopyrrolidin-1-yl)phenyl)pyrimidin-2-yl)amino)-6a′,7′-dihydro-6′H,9′H-spiro[cyclopropane-1,8′-pyrido[2,3-b]pyrrolo[1,2-d][1,4]oxazin]-9′-one]
2 | 1 to 10 | 1 to 10 | Cc1nc(Nc2cnc3c(c2)N2C(=O)C4(CC4)C[C@H]2CO3)ncc1-c1ccc(N2CCCC2=O)cc1 [Example 201, (S)-2′-((4-methyl-5-(4-(2-oxopyrrolidin-1-yl)phenyl)pyrimidin-2-yl)amino)-6a′,7′-dihydro-6′H,9′H-spiro[cyclopropane-1,8′-pyrido[2,3-b]pyrrolo[1,2-d][1,4]oxazin]-9′-one]
3 | 1 to 10 | 1 to 10 | Cc1cc(N2CCCC2=O)ccc1-c1cnc(Nc2cnc3c(c2)N2C(=O)C4(CC4)C[C@H]2CO3)nc1 [Example 203, (S)-2′-((5-(2-methyl-4-(2-oxopyrrolidin-1-yl)phenyl)pyrimidin-2-yl)amino)-6a′,7′-dihydro-6′H,9′H-spiro[cyclopropane-1,8′-pyrido[2,3-b]pyrrolo[1,2-d][1,4]oxazin]-9′-one]
4 | 1 to 10 | 1 to 10 | Nc1nc(Nc2cnc3c(c2)N2C(=O)C4(CC4)C[C@H]2CO3)ncc1-c1ccc(N2CCCC2=O)cc1 [Example 204, (S)-2′-((4-amino-5-(4-(2-oxopyrrolidin-1-yl)phenyl)pyrimidin-2-yl)amino)-6a′,7′-dihydro-6′H,9′H-spiro[cyclopropane-1,8′-pyrido[2,3-b]pyrrolo[1,2-d][1,4]oxazin]-9′-one]
5 | 1 to 10 | 1 to 10 | O=C1CCCN1c1ccc(-c2cnc(Nc3cnc4c(c3)N3C(=O)C5(CC5)C[C@H]3CO4)nc2)cc1 [Example 205, (S)-2′-((5-(4-(2-oxopyrrolidin-1-yl)phenyl)pyrimidin-2-yl)amino)-6a′,7′-dihydro-6′H,9′H-spiro[cyclopropane-1,8′-pyrido[2,3-b]pyrrolo[1,2-d][1,4]oxazin]-9′-one]
6 | 10 to 100 | 1 to 10 | Cc1cc(Nc2cnc3c(c2)N2C(=O)C4(CC4)C[C@H]2CO3)ncc1-c1ccc(N2CCCC2=O)cc1 [Example 206, (S)-2′-((4-methyl-5-(4-(2-oxopyrrolidin-1-yl)phenyl)pyridin-2-yl)amino)-6a′,7′-dihydro-6′H,9′H-spiro[cyclopropane-1,8′-pyrido[2,3-b]pyrrolo[1,2-d][1,4]oxazin]-9′-one]
7 | 1 to 10 | 1 to 10 | COCc1cc(Nc2cnc3c(c2)N2C(=O)C4(CC4)C[C@H]2CO3)ncc1-c1ccc(N2CCCC2=O)cc1 [Example 207, (S)-2′-((4-(methoxymethyl)-5-(4-(2-oxopyrrolidin-1-yl)phenyl)pyridin-2-yl)amino)-6a′,7′-dihydro-6′H,9′H-spiro[cyclopropane-1,8′-pyrido[2,3-b]pyrrolo[1,2-d][1,4]oxazin]-9′-one]
8 | 10 to 100 | 10 to 100 | Cc1cc(N2CCCC2=O)ccc1-c1ccc(Nc2cnc3c(c2)N2C(=O)C4(CC4)C[C@H]2CO3)nc1 [Example 208, (S)-2′-((5-(2-methyl-4-(2-oxopyrrolidin-1-yl)phenyl)pyridin-2-yl)amino)-6a′,7′-dihydro-6′H,9′H-spiro[cyclopropane-1,8′-pyrido[2,3-b]pyrrolo[1,2-d][1,4]oxazin]-9′-one]
9 | 1 to 10 | ≤ 1 | CC(C)c1cc(Nc2cnc3c(c2)N2C(=O)C4(CC4)C[C@H]2CO3)ncc1-c1ccc(N2CCCC2=O)cc1 [Example 210, (S)-2′-((4-isopropyl-5-(4-(2-oxopyrrolidin-1-yl)phenyl)pyridin-2-yl)amino)-6a′,7′-dihydro-6′H,9′H-spiro[cyclopropane-1,8′-pyrido[2,3-b]pyrrolo[1,2-d][1,4]oxazin]-9′-one]
